The test system of this assay is RD. Kind of assay: relative viability vs DMSO control (72 h) (fraction); higher = more viable cells. In outline:
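Relative viability is percent growth read by ATPLite and averaged over up to triplicate wells. Sarcoma cells were seeded in 384-well plates to reach 80–90% confluence and given 2.5 µl of serially diluted compound after 24 h, from source plates of 10 mM to 0.0002 mM. Incubation lasted 72 h at 37 °C, 5% CO2, with 0.1% DMSO vehicle and a 5 µM positive control, and the data were rescaled so 1 equals full and 0 equals none.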

Drawing on the supplement of paper PMC10883282, this text covers relative viability for 10 compounds.

Molecules are shown by their SMILES. Where a name gives a salt, the structure may show the parent alone. ± gives the standard deviation of the averaged measurements.

Take `COc1c(OCCCN2CCOCC2)ccc2c1N=C(NC(=O)c1cnc(N)nc1)N1CCN=C21` [Copanlisib]: the relative viability runs as follows: (0.00017 µM) 1.07 ± 0.038; (0.00051 µM) 1.06 ± 0.032; (0.00152 µM) 1.07 ± 0.082; (0.00457 µM) 0.77 ± 0.053; (0.01372 µM) 0.741 ± 0.098; (0.04115 µM) 0.61 ± 0.01. Further, the relative viability turned out to be 0.438 ± 0.019 (0.1235 µM); 0.328 ± 0.011 (0.3704 µM); 0.268 ± 0.013 (1.111 µM); 0.225 ± 0.014 (3.333 µM); 0.184 ± 0.015 (10 µM).
As for `COc1cccc2c1C(=O)c1c(O)c3c(c(O)c1C2=O)C[C@@](O)(C(=O)CO)C[C@@H]3O[C@H]1C[C@H](N)[C@H](O)[C@H](C)O1` [Doxorubicin Hydrochloride], the relative viability is 1.12 ± 0.074 (0.00017 µM); 1.09 ± 0.068 (0.00051 µM); 1.12 ± 0.069 (0.00152 µM); 1.08 ± 0.072 (0.00457 µM); 1.1 ± 0.028 (0.01372 µM); 0.892 ± 0.011 (0.04115 µM). In addition, the relative viability came to 0.556 ± 0.019 (0.1235 µM); 0.214 ± 0.015 (0.3704 µM); 0.0954 ± 0.008 (1.111 µM); 0.0741 ± 0.0052 (3.333 µM); 0.0196 ± 0.00075 (10 µM).
For the compound `CO[C@H]1C[C@@H]2CC[C@@H](C)[C@@](O)(O2)C(=O)C(=O)N2CCCC[C@H]2C(=O)O[C@H]([C@H](C)C[C@@H]2CC[C@@H](OP(C)(C)=O)[C@H](OC)C2)CC(=O)[C@H](C)/C=C(\C)[C@@H](O)[C@@H](OC)C(=O)[C@H](C)C[C@H](C)/C=C/C=C/C=C/1C` [Ridaforolimus], the relative viability is, setting by setting: (0.00017 µM) 1.06 ± 0.032; (0.00051 µM) 1.05 ± 0.049; (0.00152 µM) 0.921 ± 0.01; (0.00457 µM) 0.847 ± 0.02; (0.01372 µM) 0.753 ± 0.038; (0.04115 µM) 0.75 ± 0.036. Besides, the relative viability (0.1235 µM) was found to be 0.764 ± 0.029; the relative viability (0.3704 µM) is 0.71 ± 0.053; the relative viability (1.111 µM) came to 0.715 ± 0.071; the relative viability (3.333 µM) amounted to 0.701 ± 0.053; the relative viability (10 µM) worked out at 0.683 ± 0.05.
For the compound `COc1cc2nccc(Oc3ccc(NC(=O)Nc4cc(C)on4)c(Cl)c3)c2cc1OC` [Tivozanib], the relative viability is 1.12 ± 0.07 (0.00017 µM); 1.12 ± 0.085 (0.00051 µM); 1.13 ± 0.009 (0.00152 µM); 1.13 ± 0.068 (0.00457 µM); 1.135 ± 0.011 (0.01372 µM); 1.14 ± 0.016 (0.04115 µM). Further, the relative viability reads like this: (0.1235 µM) 1.14 ± 0.05; (0.3704 µM) 1.18 ± 0.052; (1.111 µM) 1.169 ± 0.0077; (3.333 µM) 1.17 ± 0.018; (10 µM) 0.814 ± 0.019.
For `C[C@@H](c1ccc2nccn2c1)n1nnc2ncc(-c3cnn(C)c3)nc21` [Volitinib], the relative viability reads like this: (0.00017 µM) 1.11 ± 0.027; (0.00051 µM) 1.11 ± 0.036; (0.00152 µM) 1.14 ± 0.03; (0.00457 µM) 1.12 ± 0.039; (0.01372 µM) 1.11 ± 0.022; (0.04115 µM) 1.1 ± 0.02. The same compound returned a relative viability (0.1235 µM) of 1.14 ± 0.016; a relative viability (0.3704 µM) of 1.14 ± 0.023; a relative viability (1.111 µM) of 1.09 ± 0.017; a relative viability (3.333 µM) of 1.07 ± 0.037; a relative viability (10 µM) of 1.02 ± 0.037.
`COc1cc2c(cc1O)CCN[C@]21CS[C@@H]2c3c(OC(C)=O)c(C)c4c(c3[C@H](COC1=O)N1[C@@H]2[C@H]2c3c(cc(C)c(OC)c3O)C[C@@H]([C@@H]1O)N2C)OCO4` [Trabectedin] had a relative viability (2 pM) of 1.08 ± 0.055; a relative viability (5 pM) of 1.08 ± 0.068; a relative viability (15 pM) of 1.08 ± 0.048; a relative viability (50 pM) of 1 ± 0.045; a relative viability (0.00014 µM) of 0.678 ± 0.022; a relative viability (0.00041 µM) of 0.166 ± 0.14. The relative viability is, setting by setting: (0.0012 µM) 0.158 ± 0.0037; (0.0037 µM) 0.128 ± 0.0033; (0.011 µM) 0.104 ± 0.01; (200 fM) 1.1 ± 0.043; (600 fM) 1.08 ± 0.015.
In the case of `Cc1nc(-c2cn3c(n2)-c2ccc(-c4cnn(C(C)(C)C(N)=O)c4)cc2OCC3)n(C(C)C)n1` [Taselisib], the relative viability by setting is: (0.00017 µM) 1.11 ± 0.018; (0.00051 µM) 1.08 ± 0.041; (0.00152 µM) 1.07 ± 0.037; (0.00457 µM) 1.06 ± 0.036; (0.01372 µM) 1.03 ± 0.028; (0.04115 µM) 0.888 ± 0.027. In addition, the relative viability reads like this: (0.1235 µM) 0.687 ± 0.021; (0.3704 µM) 0.524 ± 0.017; (1.111 µM) 0.444 ± 0.027; (3.333 µM) 0.426 ± 0.0056; (10 µM) 0.36 ± 0.026.
`COc1cc2c(Oc3ccc4[nH]c(C)cc4c3F)ncnc2cc1OCCCN1CCCC1` [Cediranib]: the relative viability amounted to 1.09 ± 0.043 (0.00017 µM); 1.1 ± 0.058 (0.00051 µM); 1.09 ± 0.015 (0.00152 µM); 1.15 ± 0.057 (0.00457 µM); 1.09 ± 0.076 (0.01372 µM); 1.13 ± 0.046 (0.04115 µM). Further, the relative viability (0.1235 µM) worked out at 1.1 ± 0.03; the relative viability (0.3704 µM) worked out at 1.04 ± 0.06; the relative viability (1.111 µM) was 1 ± 0.077; the relative viability (3.333 µM) was determined as 1.03 ± 0.13; the relative viability (10 µM) was 0.962 ± 0.078.
For the compound `Cc1nc(NC(=O)N2CCC[C@H]2C(N)=O)sc1-c1ccnc(C(C)(C)C(F)(F)F)c1` [Alpelisib], the relative viability reads like this: (0.00017 µM) 1.04 ± 0.032; (0.00051 µM) 1.068 ± 0.0091; (0.00152 µM) 1.04 ± 0.056; (0.00457 µM) 1.07 ± 0.041; (0.01372 µM) 1.05 ± 0.052; (0.04115 µM) 1.03 ± 0.1. The compound also registered a relative viability (0.1235 µM) of 0.932 ± 0.045; a relative viability (0.3704 µM) of 0.851 ± 0.083; a relative viability (1.111 µM) of 0.7 ± 0.055; a relative viability (3.333 µM) of 0.594 ± 0.024; a relative viability (10 µM) of 0.557 ± 0.044.
For `COc1cc2/c(=N/c3ccc(Br)cc3F)nc[nH]c2cc1OCC1CCN(C)CC1` [Vandetanib], the relative viability by setting is: (0.00017 µM) 1.1 ± 0.074; (0.00051 µM) 1.1 ± 0.066; (0.00152 µM) 1.09 ± 0.057; (0.00457 µM) 1.11 ± 0.081; (0.01372 µM) 1.1 ± 0.055; (0.04115 µM) 1.11 ± 0.088. Besides, the relative viability runs as follows: (0.1235 µM) 1.04 ± 0.083; (0.3704 µM) 1.01 ± 0.061; (1.111 µM) 0.96 ± 0.037; (3.333 µM) 0.139 ± 0.017; (10 µM) 0.0241 ± 0.0083.
